This is an account of results in ChEMBL document CHEMBL2062423 (ACS Med Chem Lett, 2012).

A word on the Ki: it is a measure of affinity in units of concentration, obtained from inhibition or displacement. Read a low Ki as higher affinity.

The target of test [1] is Sodium-dependent dopamine transporter (Homo sapiens, UniProt Q01959). The test can be described thus: Displacement of [3H]WIN-35,428 from human DAT expressed in mouse N2A cells after 15 mins by liquid scintillation counting. The test is classed as cell-based.
Sodium-dependent dopamine transporter, sequence (Q01959 whole entry): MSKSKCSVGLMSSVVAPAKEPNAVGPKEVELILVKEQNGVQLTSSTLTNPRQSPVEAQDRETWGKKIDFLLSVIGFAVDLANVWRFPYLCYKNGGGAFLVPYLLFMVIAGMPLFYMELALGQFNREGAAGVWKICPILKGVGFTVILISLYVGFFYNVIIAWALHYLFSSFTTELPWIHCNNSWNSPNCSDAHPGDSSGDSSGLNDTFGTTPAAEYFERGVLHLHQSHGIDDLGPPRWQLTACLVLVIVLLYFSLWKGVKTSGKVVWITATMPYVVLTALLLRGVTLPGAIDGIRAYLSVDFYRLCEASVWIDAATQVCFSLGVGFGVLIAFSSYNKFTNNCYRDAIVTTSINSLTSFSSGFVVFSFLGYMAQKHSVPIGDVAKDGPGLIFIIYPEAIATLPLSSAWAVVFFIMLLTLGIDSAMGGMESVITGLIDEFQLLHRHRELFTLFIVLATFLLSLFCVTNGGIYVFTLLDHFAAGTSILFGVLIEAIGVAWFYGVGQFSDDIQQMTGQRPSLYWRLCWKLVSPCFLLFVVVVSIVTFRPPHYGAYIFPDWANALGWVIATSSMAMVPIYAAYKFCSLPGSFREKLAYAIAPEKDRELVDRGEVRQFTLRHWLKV
Test [2] deals with Sodium-dependent dopamine transporter (Rattus norvegicus) (UniProt P23977). The test can be described thus: Binding affinity to DAT in rat striatal membrane at 10 nM incubated for 1.5 hrs prior to irradiation measured after 5 mins by photoaffinity labeling-based autoradiographic analysis in presence of (-)-cocaine. Conditions: Striatum, tested as the 125I-labelled form. Type of test: cell membranes.
Sodium-dependent dopamine transporter (Rattus norvegicus), sequence (P23977 whole entry): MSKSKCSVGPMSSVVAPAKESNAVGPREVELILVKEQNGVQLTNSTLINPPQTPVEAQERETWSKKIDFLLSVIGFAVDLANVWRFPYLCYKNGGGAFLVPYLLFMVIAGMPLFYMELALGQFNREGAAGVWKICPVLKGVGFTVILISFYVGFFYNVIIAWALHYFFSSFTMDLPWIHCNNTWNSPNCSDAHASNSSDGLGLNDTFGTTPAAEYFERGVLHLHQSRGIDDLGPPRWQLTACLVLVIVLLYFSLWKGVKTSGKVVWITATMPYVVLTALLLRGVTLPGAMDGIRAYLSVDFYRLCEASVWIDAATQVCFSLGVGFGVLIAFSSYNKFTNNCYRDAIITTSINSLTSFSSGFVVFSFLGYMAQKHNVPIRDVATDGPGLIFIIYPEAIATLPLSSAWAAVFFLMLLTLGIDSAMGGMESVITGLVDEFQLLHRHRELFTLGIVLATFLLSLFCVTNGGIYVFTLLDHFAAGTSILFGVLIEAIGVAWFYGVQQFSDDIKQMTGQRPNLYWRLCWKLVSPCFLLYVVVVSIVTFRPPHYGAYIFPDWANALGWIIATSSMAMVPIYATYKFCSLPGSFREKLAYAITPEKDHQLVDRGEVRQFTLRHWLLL

Test [3] has the same target. The test can be described thus: Binding affinity to DAT in rat striatal membrane at 10 nM incubated for 1.5 hrs prior to irradiation measured after 5 mins by photoaffinity labeling-based autoradiographic analysis in presence of D-methylphenidate. The test is classed as cell membranes. Conditions: Striatum, tested as the 125I-labelled form.
Test [4] has the same target. The test can be described thus: Binding affinity to DAT in rat striatal membrane at 10 nM incubated for 1.5 hrs prior to irradiation measured after 5 mins by photoaffinity labeling-based autoradiographic analysis. The test is classed as cell membranes. To be noted: Striatum, tested as the 125I-labelled form.

Active and inactive are the calls of the source. No cut-off for these calls is given here.

Take `COC(=O)[C@H](c1ccc([N+](=O)[O-])cc1)[C@H]1CCCCN1` (racemic): the affinity in test [1], expressed as Ki, was 77 nM. The same measure, in the same setting: the result for `COC(=O)[C@H](c1ccc(Cl)c(Cl)c1)[C@H]1CCCCN1` (racemic) reads 1.8 nM; that for `COC(=O)[C@H](c1ccc(N=[N+]=[N-])cc1)[C@H]1CCCCN1` (racemic), 35 nM. On the same count and under the same terms, the result for `COC(=O)[C@H](c1ccc(N)cc1)[C@H]1CCCCN1` (racemic) reads 6.3 nM.

As for `COC(=O)[C@H](c1ccc(N)c(I)c1)[C@H]1CCCCN1` (racemic), the Ki in test [1] stood at 9.1 nM. Regarding `COC(=O)[C@H](c1ccc(N=[N+]=[N-])c(I)c1)[C@H]1CCCCN1` (racemic), the result in test [2] and in test [3] was inactive. Further, in test [4], the result was Active. Besides, the Ki in test [1] turned out to be 4 nM.
